Measured values: patent publication US8487121B2, “Chromane derivatives as TRPV3 modulators” (Glenmark Pharmaceuticals S.A., priority 2007, dated 2013)

Molecular target: T1, Human TRPV3 (Homo sapiens, UniProt Q8NET8)
T1 construct: expressed in transfected cells; host or cells: CHO cells (G-418 selected)
T1 sequence (Q8NET8 1-790): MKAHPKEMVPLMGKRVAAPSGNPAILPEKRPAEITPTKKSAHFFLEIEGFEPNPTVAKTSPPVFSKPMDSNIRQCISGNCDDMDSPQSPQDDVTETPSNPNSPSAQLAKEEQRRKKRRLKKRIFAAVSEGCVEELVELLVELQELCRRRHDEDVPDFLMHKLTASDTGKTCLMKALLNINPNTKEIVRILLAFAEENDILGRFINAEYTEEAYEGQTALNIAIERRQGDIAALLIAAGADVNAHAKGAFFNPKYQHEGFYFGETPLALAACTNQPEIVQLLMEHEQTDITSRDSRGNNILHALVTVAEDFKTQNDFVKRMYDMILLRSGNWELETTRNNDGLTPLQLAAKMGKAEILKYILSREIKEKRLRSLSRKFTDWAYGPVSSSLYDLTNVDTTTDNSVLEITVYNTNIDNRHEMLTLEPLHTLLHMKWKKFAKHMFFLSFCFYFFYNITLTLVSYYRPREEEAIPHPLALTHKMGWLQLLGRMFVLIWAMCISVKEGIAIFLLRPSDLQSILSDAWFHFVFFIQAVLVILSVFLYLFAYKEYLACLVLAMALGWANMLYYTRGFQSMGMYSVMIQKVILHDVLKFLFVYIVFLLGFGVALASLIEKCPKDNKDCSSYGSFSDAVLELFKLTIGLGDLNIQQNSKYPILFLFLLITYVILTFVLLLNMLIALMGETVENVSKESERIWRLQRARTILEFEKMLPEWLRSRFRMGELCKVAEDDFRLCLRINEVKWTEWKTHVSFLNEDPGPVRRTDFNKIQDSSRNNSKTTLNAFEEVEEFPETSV
Assay: 45Calcium uptake assay: inhibition of 2-APB induced cellular uptake of radioactive calcium
Type: cell-based
Conditions: human TRPV3 expressing CHO cells, 2-APB 500 μM; for inhibition at 1 µM: 1.0 μM compound, read-out: Percentage inhibition at 1.0 μM; for inhibition at 10 µM: 10.0 μM compound, read-out: Percentage inhibition at 10.0 μM
Text: The illustrative examples of the present invention are screened for TRPV3 activity according to a modified procedure described in Toth, A. et al. Life Sciences (2003), 73, 487-498. The screening of the compounds can be carried out by other methods and procedures known to a person skilled in the art. Such screening methods may be found in Hu, H-Z., et al. J. Biol. Chem. (2004), 279, 35741-35748; Smith, G. D et al. Nature (2002), 418, 186-190 and Peier, A. M., et al. Science (2002), 296, 2046-2049.
Screening for TRPV3 Antagonist Using the ^45Calcium Uptake Assay:
The inhibition of TRPV3 receptor activation was followed as inhibition of 2-APB induced cellular uptake of radioactive calcium. Test compounds were dissolved in DMSO to prepare 20 mM stock and then diluted using plain medium with 0.1% BSA and 1.8 mM CaCl2 to get desired concentration. Final concentration of DMSO in the reaction was 0.5% (v/v). Human TRPV3 expressing CHO cells were grown in F-12 DMEM medium with 10% FBS, 1% penicillin-streptomycin solution, 400 μg/ml of G-418. Cells were seeded 24 h prior to the assay in 96 well plates so as to get ˜50,000 cells per well on the day of experiment. Cells were treated with test compounds for 10 minutes followed by addition of 2-APB at a final concentration of 500 μM and 5 μCi/ml ^45Ca^+2 for 4 minutes. Cells were washed and lysed using buffer containing 1% Triton X-100, 0.1% deoxycholate and 0.1% SDS. Radioactivity in the lysate was measured in Packardt Top count after addition of liquid scintillant.
Concentration response curves were plotted as a % of maximal response obtained in the absence of test antagonist. IC50 value was calculated from concentration response curve by nonlinear regression analysis using GraphPad PRISM software.
Percentage inhibition at concentrations of 1.0 μM and 10.0 μM are given in the table along with IC50 (nM) values for selected examples.

| SMILES | inhibition at 1 µM [%] | inhibition at 10 µM [%] | IC50 [nM] |
| --- | --- | --- | --- |
| Cc1cccc(CCC(=O)N[C@@H]2CC3(CCC3)Oc3ccc(Cl)cc32)c1OC1CCCC1 [Example 53, (4R)-6-Chloro-N-(3,4-dihydrospiro[chromene-2,1′-cyclobutan]-4-yl)-3-(2-cyclopentyloxy-3-methyl)phenylpropanamide] | 61.9 | 91.4 | 500 to 1000 |
| COc1cccc(CCC(=O)N[C@H]2CC3(CCC3)Oc3c(Cl)cccc32)c1OC1CCCC1 [Example 48] |  |  | 500 to 1000 |
| O=C(Cc1cccc2ccccc12)NC1CC2(CCC2)Oc2cc(Cl)ccc21 (centres unmarked) [Example 14, N-(7-Chloro-3,4-dihydrospiro[chromene-2,1′-cyclobutan]-4-yl)-2-(1-naphthyl)acetamide] | 9.8 | 78.8 |  |
| COc1cccc(CCC(=O)NC2CC3(CCC3)Oc3cc(Cl)ccc32)c1OC1CCCC1 (centres unmarked) [Example 45, N-(7-Chloro-3,4-dihydrospiro[chromene-2,1′-cyclobutan]-4-yl)-3-(2-cyclopentyloxy-3-methoxy)phenylpropanamide] | 59.2 | 94.8 | 500 to 1000 |
| COc1cccc(CCC(=O)NC2CCSc3ccc(Cl)cc32)c1OC1CCCC1 (centres unmarked) [Example 89, N-(6-chloro-3,4-dihydro-2H-thiochromen-4-yl)-3-(2-cyclopentyloxy-3-methoxyphenyl)-propanamide] | 38 | 87.3 |  |
| O=C(CC1CCCc2ccccc21)NC1CC2(CCC2)Oc2ccc(Cl)cc21 (centres unmarked) [Example 21, N-(6-Chloro-3,4-dihydrospiro[chromene-2,1′-cyclobutan]-4-yl)-2-(1,2,3,4-tetrahydronaphthalen-1-yl)acetamide] | 63.5 | 93.6 | 500 to 1000 |
| O=C(CCc1cccc2c1OCO2)NC1CC2(CCC2)Oc2c(Cl)cccc21 (centres unmarked) [Example 83, 3-(1,3-Benzodioxol-4-yl)-N-(8-chloro-3,4-dihydrospiro[chromene-2,1′-cyclobutan]-4-yl)propanamide] | 11 | 83.2 |  |
| COc1cccc(CCCC(=O)N[C@H]2CC3(CCC3)Oc3c(Cl)cccc32)c1OC1CCCC1 [Example 96, (4S)—N-(8-Chloro-3,4-dihydrospiro[chromene-2,1′-cyclobutan]-4-yl)-4-(2-cyclopentyloxy-3-methoxyphenyl)butanamide] | 44.4 | 80.9 |  |
| COc1ccc(C(=O)CCC(=O)NC2CC3(CCC3)Oc3ccc(Cl)cc32)c2ccccc12 (centres unmarked) [Example 101, N-(6-Chloro-3,4-dihydrospiro[chromene-2,1′-cyclobutan]-4-yl)-4-oxo-4-(4-methoxy-naphthyl)butanamide] | 26.5 | 63.2 |  |
| O=C(CCc1ccc(OC(F)F)c2ccccc12)N[C@@H]1CC2(CCC2)Oc2ccc(Cl)cc21 [Example 71, (4R)-6-Chloro-N-(3,4-dihydrospiro[chromene-2,1′-cyclobutan]-4-yl)-3-(4-difluoro-methoxy-1-naphthyl)propanamide] | 53.5 | 95.5 |  |
| COc1cccc(CCC(=O)NC2CC3(CCC3)Oc3c(Cl)cc(Cl)cc32)c1OC1CCCC1 (centres unmarked) [Example 59, N-(6,8-Dichloro-3,4-dihydrospiro[chromene-2,1′-cyclobutan]-4-yl)-3-(2-cyclopentyloxy-3-methoxy)phenylpropanamide] | 89.4 | 96.3 | < 500 |
| COc1cccc(CCC(=O)N[C@@H]2CC3(CCC3)Oc3ccc(Cl)cc32)c1OC1CCCC1 [Example 42] | 47.2 | 95.1 | 500 to 1000 |
| COc1cccc(CCCC(=O)NC2CCSc3ccc(Cl)cc32)c1OC1CCCC1 (centres unmarked) [Example 104, N-(6-chloro-3,4-dihydro-2H-thiochromen-4-yl)-4-(2-cyclopentyloxy-3-methoxyphenyl)-butanamide] | 51.3 | 92.5 |  |
| COc1cccc(CCCC(=O)N[C@@H]2CC3(CCC3)Oc3ccc(Cl)cc32)c1OC1CCCC1 [Example 93, N-(4R)-6-Chloro-3,4-dihydrospiro[chromene-2,1′-cyclobutan]-4-yl-4-(2-cyclopentyloxy-3-methoxyphenyl)butanamide] | 72.8 | 94.2 | 500 to 1000 |
| COc1ccc(CCC(=O)N[C@H]2CC3(CCC3)Oc3ccc(Cl)cc32)c2ccccc12 [Example 70, N-[(4S)-6-Chloro-3,4-dihydrospiro[chromene-2,1′-cyclobutan]-4-yl)-3-(4-methoxy)-1-naphthylpropanamide] | 66.1 | 91.2 | 500 to 1000 |
| O=C(CCc1ccc2ccccc2n1)NC1CC2(CCC2)Oc2ccc(Cl)cc21 (centres unmarked) [Example 76, N-(6-Chloro-3,4-dihydrospiro[chromene-2,1′-cyclobutan]-4-yl)-3-(quinolin-2-yl)propanamide] | 23.5 | 58.8 |  |
| O=C(Cc1cccc2ccccc12)N[C@@H]1CC2(CCC2)Oc2ccc(Cl)cc21 [Example 12, N-[(4R)-6-Chloro-3,4-dihydrospiro[chromene-2,1′-cyclobutan]-4-yl]-2-(1-naphthyl)acetamide] |  |  | 500 to 1000 |
| O=C(Cc1ccccn1)NC1CC2(CCC2)Oc2ccc(Cl)cc21 (centres unmarked) [Example 8, N-(6-Chloro-3,4-dihydrospiro[chromene-2,1′-cyclobutan]-4-yl)-2-pyridin-2-ylacetamide] | 3.8 | 22.5 |  |
| CC(C)Oc1ccc(NS(C)(=O)=O)cc1CCC(=O)NC1CC2(CCC2)Oc2c(Cl)cc(Cl)cc21 (centres unmarked) [Example 62, N-(6,8-Dichloro-3,4-dihydrospiro[chromene-2,1′-cyclobutan]-4-yl)-3-{2-isopropoxy-5-[(methylsulfonyl)amino]phenyl}propanamide] | 13.5 | 82.2 |  |
| COc1ccc2ccccc2c1CCC(=O)N[C@H]1CC2(CCC2)Oc2ccc(Cl)cc21 [Example 68] | 70.6 | 91 | 500 to 1000 |
| O=C(Cc1cccc2ccccc12)NC1CC2(CCC2)Oc2ccc(F)cc21 (centres unmarked) [Example 10] | 13.7 | 92.4 |  |
| CCCOc1c(CCC(=O)NC2CC3(CCC3)Oc3c(Cl)cc(Cl)cc32)cccc1NS(C)(=O)=O (centres unmarked) [Example 61, N-(6,8-dichloro-3,4-dihydrospiro[chromene-2,1′-cyclobutan]-4-yl)-3-{2-propoxy-3-[(methylsulfonyl)amino]phenyl}propanamide] | 45.1 | 93.8 |  |
| COc1cccc(CC(=O)NC2CC3(CCC3)Oc3ccc(Cl)cc32)c1OC1CCCC1 (centres unmarked) [Example 4, N-(6-Chloro-3,4-dihydrospiro[chromene-2,1′-cyclobutan]-4-yl)-2-(2-(cyclopentyloxy)-3-methoxyphenyl)acetamide] | 37.2 | 66.2 |  |
| COc1ccc(C(O)CCC(=O)NC2CC3(CCC3)Oc3ccc(Cl)cc32)c2ccccc12 (centres unmarked) [Example 102, N-(6-Chloro-3,4-dihydrospiro[chromene-2,1′-cyclobutan]-4-yl)-4-hydroxy-4-(4-methoxynaphthyl)butanamide] | 26.6 | 42.8 |  |
| COc1cccc(CC(=O)N[C@H]2CC3(CCC3)Oc3c(Cl)cccc32)c1OC1CCCC1 [Example 6, N-[(4S)-8-Chloro-3,4-dihydrospiro[chromene-2,1′-cyclobutan]-4-yl]-2-(2-cyclopentyl-oxy-3-methoxy)phenylacetamide] | 35.3 | 89 |  |
